Each structure is given as a SMILES string.

By Ki is commonly meant a measure of affinity in units of concentration, obtained from inhibition or displacement.

Test in all cases: Ray2010 Assay 74
The target in assay [1] is 5-hydroxytryptamine receptor 7 (Homo sapiens, UniProt P34969). The source says:
(§1) Table S2 shows raw Ki data for the current study combined with data collected from the literature for the ten additional compounds.

The target of assay [2] is ATP-dependent translocase ABCB1 (Homo sapiens, UniProt P08183).
Text: as §1

For assay [3], the target named is Beta-2 adrenergic receptor (Homo sapiens, UniProt P07550).
Sequence of Beta-2 adrenergic receptor (P07550 whole entry): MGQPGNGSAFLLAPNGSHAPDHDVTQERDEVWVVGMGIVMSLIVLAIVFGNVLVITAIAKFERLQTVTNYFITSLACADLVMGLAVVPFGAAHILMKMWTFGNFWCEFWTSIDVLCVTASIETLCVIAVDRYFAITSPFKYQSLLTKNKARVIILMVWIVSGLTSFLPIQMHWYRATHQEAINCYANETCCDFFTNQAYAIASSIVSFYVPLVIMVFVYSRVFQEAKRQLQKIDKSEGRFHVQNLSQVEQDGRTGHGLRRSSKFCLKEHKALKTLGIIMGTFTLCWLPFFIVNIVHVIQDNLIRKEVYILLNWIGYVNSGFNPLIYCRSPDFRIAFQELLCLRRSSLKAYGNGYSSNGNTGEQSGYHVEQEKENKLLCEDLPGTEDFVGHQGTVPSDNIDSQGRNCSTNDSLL
Text: as §1

For assay [4], the target named is Cannabinoid receptor 1 (Homo sapiens, UniProt P21554).
Sequence of Cannabinoid receptor 1 (P21554 whole entry): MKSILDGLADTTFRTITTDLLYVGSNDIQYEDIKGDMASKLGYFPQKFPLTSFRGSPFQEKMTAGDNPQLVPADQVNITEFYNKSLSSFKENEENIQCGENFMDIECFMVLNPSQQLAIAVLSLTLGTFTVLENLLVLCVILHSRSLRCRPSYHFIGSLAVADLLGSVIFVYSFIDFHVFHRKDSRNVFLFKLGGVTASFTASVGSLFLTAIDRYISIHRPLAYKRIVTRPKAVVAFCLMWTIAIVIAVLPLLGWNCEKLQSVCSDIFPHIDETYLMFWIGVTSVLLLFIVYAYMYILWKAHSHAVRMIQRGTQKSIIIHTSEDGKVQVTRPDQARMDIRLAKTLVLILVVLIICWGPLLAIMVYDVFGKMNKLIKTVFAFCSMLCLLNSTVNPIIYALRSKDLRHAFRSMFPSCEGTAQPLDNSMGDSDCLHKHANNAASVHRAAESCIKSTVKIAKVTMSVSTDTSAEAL
Text: as §1

The target in assay [5] is Sigma intracellular receptor 2 (Homo sapiens, UniProt Q5BJF2).
Sequence of Sigma intracellular receptor 2 (Q5BJF2 whole entry): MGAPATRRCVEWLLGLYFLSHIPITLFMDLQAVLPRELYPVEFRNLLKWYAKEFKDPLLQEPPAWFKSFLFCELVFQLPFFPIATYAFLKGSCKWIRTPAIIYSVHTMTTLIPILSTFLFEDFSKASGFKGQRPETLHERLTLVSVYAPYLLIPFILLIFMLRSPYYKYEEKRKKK
Text: as §1

The target in assay [6] is T1, 5-hydroxytryptamine receptor 2C (Homo sapiens, UniProt P28335).
T1 sequence (P28335 whole entry): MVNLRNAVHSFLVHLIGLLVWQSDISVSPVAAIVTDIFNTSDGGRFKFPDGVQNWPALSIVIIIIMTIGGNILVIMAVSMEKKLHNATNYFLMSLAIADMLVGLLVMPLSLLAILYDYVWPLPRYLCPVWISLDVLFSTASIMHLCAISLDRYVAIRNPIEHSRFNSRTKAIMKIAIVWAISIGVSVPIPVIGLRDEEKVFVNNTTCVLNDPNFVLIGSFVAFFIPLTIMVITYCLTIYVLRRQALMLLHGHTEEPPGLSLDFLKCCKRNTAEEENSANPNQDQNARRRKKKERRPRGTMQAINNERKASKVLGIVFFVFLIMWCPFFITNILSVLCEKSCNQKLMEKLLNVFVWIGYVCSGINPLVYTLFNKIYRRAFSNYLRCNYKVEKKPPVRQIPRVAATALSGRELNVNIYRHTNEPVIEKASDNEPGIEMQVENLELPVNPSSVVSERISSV
Text: as §1

In assay [7] the target is Glutamate receptor 4 (Homo sapiens, UniProt P48058).
Text: as §1

For assay [8], the target named is Muscarinic acetylcholine receptor M3 (Homo sapiens, UniProt P20309).
Sequence of Muscarinic acetylcholine receptor M3 (P20309 whole entry): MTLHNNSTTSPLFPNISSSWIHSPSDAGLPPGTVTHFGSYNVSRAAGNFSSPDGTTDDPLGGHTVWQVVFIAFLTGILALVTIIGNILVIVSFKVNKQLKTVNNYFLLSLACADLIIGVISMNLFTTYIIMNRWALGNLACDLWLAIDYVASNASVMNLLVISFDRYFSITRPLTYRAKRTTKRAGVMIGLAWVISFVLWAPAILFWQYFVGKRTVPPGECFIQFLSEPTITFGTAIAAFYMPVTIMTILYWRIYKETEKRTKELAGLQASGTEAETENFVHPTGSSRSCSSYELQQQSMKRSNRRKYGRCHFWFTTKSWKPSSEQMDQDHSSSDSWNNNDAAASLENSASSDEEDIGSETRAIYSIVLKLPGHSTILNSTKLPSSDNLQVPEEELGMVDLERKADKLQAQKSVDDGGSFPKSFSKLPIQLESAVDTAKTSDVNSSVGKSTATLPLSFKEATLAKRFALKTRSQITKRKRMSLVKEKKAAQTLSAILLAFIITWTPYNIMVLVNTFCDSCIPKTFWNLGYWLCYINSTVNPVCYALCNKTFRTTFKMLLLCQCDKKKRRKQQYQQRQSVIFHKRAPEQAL
Text: as §1

Assay [9] has as its target T2, Muscarinic acetylcholine receptor M4 (Homo sapiens, UniProt P08173).
T2 sequence (P08173 whole entry): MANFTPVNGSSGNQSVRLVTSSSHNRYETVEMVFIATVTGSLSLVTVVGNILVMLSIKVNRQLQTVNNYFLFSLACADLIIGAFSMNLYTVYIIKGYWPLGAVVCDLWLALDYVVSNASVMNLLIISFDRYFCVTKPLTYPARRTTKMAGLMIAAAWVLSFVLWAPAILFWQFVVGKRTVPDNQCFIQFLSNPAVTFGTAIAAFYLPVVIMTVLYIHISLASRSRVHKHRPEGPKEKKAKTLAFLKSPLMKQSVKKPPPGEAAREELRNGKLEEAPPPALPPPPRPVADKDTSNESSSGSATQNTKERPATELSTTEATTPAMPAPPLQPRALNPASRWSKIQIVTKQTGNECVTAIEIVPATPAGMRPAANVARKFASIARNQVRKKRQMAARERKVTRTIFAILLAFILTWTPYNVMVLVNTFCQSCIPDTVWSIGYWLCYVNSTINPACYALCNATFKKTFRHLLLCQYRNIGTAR
Text: as §1

In assay [10] the target is Neuronal acetylcholine receptor subunit alpha-2/beta-2 (Homo sapiens, UniProt P17787+Q15822).
Text: as §1

Assay [11] concerns the target Neuronal acetylcholine receptor subunit alpha-2/beta-4 (Homo sapiens, UniProt P30926+Q15822).
Text: as §1

For assay [12], the target named is Neuronal acetylcholine receptor subunit alpha-3/beta-2 (Homo sapiens, UniProt P17787+P32297).
Text: as §1

Assay [13] has as its target Neuronal acetylcholine receptor subunit alpha-4/beta-2 (Homo sapiens, UniProt P17787+P43681).
Text: as §1

For assay [14], the target named is Neuronal acetylcholine receptor subunit alpha-4/beta-2 (Mus musculus, UniProt O70174+Q9ERK7).
Text: as §1

For assay [15], the target named is Neuronal acetylcholine receptor subunit alpha-4/beta-4 (Homo sapiens, UniProt P30926+P43681).
Text: as §1

Assay [16] concerns the target Metabotropic glutamate receptor 1 (Homo sapiens, UniProt Q13255).
Text: as §1

Assay [17] deals with Metabotropic glutamate receptor 2 (Homo sapiens, UniProt Q14416).
Sequence of Metabotropic glutamate receptor 2 (Q14416 whole entry): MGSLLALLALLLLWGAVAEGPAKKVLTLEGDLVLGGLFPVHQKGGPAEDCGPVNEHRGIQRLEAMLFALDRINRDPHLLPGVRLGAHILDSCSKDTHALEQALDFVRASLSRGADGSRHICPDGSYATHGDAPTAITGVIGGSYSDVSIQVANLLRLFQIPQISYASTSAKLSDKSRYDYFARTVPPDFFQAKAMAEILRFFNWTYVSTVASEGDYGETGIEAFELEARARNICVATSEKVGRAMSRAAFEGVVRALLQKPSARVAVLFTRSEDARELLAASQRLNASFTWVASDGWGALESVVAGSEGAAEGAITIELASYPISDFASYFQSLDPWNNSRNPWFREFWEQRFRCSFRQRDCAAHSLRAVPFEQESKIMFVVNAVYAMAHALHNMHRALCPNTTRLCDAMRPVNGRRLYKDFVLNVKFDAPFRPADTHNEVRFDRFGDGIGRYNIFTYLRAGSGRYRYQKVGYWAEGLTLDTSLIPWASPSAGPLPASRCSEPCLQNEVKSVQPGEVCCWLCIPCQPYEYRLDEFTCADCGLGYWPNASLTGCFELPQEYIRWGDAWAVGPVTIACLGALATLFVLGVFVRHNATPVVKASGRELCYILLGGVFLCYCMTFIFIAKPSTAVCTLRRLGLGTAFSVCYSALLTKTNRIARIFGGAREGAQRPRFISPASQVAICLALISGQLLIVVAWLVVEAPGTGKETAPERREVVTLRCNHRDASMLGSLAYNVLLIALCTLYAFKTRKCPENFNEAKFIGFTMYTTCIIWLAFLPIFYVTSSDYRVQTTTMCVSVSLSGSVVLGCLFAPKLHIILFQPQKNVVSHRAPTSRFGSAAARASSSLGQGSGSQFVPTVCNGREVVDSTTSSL
Text: as §1

The target in assay [18] is Metabotropic glutamate receptor 4 (Homo sapiens, UniProt Q14833).
Text: as §1

The target in assay [19] is Metabotropic glutamate receptor 5 (Homo sapiens, UniProt P41594).
Sequence of Metabotropic glutamate receptor 5 (P41594 whole entry): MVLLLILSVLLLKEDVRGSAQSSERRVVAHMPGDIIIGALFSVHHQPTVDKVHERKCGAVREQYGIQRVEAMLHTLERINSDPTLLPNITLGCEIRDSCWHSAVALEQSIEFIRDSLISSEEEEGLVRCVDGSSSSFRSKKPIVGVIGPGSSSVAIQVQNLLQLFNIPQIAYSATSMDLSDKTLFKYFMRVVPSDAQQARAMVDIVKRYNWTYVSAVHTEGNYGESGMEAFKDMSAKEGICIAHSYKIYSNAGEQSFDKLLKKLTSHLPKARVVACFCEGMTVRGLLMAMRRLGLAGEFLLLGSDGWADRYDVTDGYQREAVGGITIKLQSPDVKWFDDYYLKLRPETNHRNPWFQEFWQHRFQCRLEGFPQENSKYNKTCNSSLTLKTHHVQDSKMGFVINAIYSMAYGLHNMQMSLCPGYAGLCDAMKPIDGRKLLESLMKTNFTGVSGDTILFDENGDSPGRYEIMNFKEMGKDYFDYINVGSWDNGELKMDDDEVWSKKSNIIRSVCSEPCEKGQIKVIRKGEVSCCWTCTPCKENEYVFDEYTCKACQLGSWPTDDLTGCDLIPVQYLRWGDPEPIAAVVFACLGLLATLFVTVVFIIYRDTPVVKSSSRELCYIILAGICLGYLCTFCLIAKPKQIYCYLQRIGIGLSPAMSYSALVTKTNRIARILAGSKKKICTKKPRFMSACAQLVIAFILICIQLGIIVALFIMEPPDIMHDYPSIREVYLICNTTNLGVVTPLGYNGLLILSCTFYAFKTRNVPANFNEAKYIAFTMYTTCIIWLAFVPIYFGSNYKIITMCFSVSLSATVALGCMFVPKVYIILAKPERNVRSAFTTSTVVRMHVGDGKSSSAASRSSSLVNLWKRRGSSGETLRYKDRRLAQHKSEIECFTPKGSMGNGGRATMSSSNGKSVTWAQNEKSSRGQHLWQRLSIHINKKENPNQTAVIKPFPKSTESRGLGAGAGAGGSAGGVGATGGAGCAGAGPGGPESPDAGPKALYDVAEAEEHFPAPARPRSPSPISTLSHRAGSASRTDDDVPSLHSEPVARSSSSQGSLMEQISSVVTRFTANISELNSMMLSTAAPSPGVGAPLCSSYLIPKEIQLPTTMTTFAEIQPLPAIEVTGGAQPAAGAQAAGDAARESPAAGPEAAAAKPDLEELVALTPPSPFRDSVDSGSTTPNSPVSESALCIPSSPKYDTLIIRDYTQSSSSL
Text: as §1

In assay [20] the target is Metabotropic glutamate receptor 6 (Homo sapiens, UniProt O15303).
Text: as §1

The target in assay [21] is Metabotropic glutamate receptor 8 (Homo sapiens, UniProt O00222).
Text: as §1

In assay [22] the target is T3, Gamma-aminobutyric acid receptor subunit alpha-1/Adenosine receptor A1 (Homo sapiens, UniProt P14867+P30542).
T3 sequence (P30542 whole entry): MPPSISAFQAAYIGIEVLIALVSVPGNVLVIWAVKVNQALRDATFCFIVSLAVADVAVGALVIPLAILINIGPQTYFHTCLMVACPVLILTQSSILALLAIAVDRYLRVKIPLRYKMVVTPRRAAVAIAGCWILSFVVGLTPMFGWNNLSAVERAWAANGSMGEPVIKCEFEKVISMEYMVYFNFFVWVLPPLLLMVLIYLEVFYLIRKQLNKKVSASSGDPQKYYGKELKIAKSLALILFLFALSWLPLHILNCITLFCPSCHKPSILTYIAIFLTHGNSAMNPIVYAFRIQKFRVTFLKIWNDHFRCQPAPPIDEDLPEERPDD
T3 sequence (P14867 whole entry): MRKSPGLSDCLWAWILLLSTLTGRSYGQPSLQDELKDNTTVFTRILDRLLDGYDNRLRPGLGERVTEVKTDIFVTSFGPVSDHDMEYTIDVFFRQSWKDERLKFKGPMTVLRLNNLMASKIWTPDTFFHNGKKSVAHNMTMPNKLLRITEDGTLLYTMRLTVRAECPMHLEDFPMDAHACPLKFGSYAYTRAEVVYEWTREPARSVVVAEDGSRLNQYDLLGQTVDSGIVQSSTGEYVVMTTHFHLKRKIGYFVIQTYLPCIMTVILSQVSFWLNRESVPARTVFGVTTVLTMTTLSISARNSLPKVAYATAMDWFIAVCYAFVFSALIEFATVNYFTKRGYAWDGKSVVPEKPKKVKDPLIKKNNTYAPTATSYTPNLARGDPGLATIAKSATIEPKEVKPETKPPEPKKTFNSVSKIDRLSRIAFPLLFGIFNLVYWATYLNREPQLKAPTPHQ
Text: as §1

Sequence of Metabotropic glutamate receptor 1 (Q13255 whole entry): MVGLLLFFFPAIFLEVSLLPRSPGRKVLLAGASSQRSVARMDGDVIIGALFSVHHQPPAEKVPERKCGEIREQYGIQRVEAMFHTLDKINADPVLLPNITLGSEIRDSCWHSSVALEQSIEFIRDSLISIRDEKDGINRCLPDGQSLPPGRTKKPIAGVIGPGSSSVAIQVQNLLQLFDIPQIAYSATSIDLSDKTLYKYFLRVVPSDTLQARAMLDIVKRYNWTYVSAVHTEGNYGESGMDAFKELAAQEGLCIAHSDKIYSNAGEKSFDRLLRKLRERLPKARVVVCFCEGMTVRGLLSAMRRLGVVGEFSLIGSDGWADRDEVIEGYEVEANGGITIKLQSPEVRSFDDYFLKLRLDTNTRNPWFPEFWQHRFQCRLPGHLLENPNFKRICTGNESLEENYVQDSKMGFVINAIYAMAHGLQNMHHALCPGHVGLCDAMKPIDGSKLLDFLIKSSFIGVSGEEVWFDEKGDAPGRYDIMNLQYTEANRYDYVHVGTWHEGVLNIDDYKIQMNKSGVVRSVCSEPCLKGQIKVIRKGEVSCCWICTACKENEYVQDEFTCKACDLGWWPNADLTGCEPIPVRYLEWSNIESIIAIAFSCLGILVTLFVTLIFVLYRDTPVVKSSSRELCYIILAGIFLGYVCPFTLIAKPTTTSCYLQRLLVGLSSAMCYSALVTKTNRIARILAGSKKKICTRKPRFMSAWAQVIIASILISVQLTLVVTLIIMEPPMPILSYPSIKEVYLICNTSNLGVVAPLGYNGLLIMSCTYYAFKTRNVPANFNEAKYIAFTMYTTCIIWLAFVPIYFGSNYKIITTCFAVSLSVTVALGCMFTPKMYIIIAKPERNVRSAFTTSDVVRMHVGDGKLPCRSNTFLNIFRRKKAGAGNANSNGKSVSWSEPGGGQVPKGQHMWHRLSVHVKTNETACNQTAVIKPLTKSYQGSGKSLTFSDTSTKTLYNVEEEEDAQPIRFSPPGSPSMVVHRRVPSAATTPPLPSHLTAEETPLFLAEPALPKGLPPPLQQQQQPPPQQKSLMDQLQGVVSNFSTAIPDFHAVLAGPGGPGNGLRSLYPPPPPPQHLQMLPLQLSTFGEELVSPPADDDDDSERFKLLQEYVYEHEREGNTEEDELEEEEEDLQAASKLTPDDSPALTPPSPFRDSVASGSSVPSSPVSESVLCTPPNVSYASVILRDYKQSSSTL

On to `COc1cc(CC(C)N)cc(OC)c1OC` (stereo unspecified), for which the Ki is 0.749 µM in [1]; greater than 10 µM in [2]; greater than 10 µM in assay [3]; greater than 10 µM in assay [4]; 0.536 µM in [5].
As for `CC[C@H]1C[C@@H]2C[C@H]3c4[nH]c5ccc(OC)cc5c4CCN(C2)[C@@H]13`, the Ki in [6] is greater than 10 µM; in assay [7], greater than 10 µM; in assay [8], 12.5 µM; in [5] it was 0.206 µM.
Consider `CCc1cc(OC)c(CC(C)N)cc1OC` (stereo unspecified), for which the Ki was 1.23 µM in assay [1], greater than 10 µM in assay [2], greater than 10 µM in assay [4] and 9.56 µM in assay [5].
As to `NCCc1c2c(c(Br)c3c1OCC3)OCC2` [2-(8-Bromo-2,3,6,7-tetrahydro-benzo[1,2-b;4,5-b']difuran-4-yl)-ethylamine], the Ki is 0.0106 µM in assay [6]; greater than 10 µM in [3]; greater than 10 µM in [4]; 0.339 µM in [8]; 0.52 µM in [9]; greater than 10 µM in assay [10]. Also, the Ki in [11], in assay [12], in [13], in assay [14], in [15] and in [5] was greater than 10 µM throughout.
For `CCc1[nH]c2ccc(OC)cc2c1CCN(C)C` [2-ethyl-5-methoxy-N,N-dimethyltryptamine], the Ki in [7], in [8], in assay [9], in assay [10], in assay [11] and in assay [12] was greater than 10 µM throughout. Moreover, the Ki in [13], in assay [14] and in assay [15] was greater than 10 µM throughout.
For `COc1cc(CC(C)N)c(OC)cc1C` (stereo not drawn) [(+/-)2-(2,5-Dimethoxy-4-methyl-phenyl)-1-methyl-ethylamine], the Ki is 1.59 µM in [1]; greater than 10 µM in assay [4]; greater than 10 µM in assay [10]; greater than 10 µM in assay [11]; greater than 10 µM in [12]; greater than 10 µM in assay [13]. Also, the Ki in assay [14], in [15] and in assay [5] was greater than 10 µM throughout.
Take `COc1ccc2[nH]c(C)c(CCN(C)C)c2c1` [[2-(5-Methoxy-2-methyl-1H-indol-3-yl)-ethyl]-dimethyl-amine (C2H2O)]: the inhibition constant (Ki) in assay [7], in assay [8], in [9], in assay [10], in assay [11] and in [12] was greater than 10 µM in each case. Besides, the Ki in assay [13], in assay [14] and in [15] was greater than 10 µM throughout.
Consider `CCN(CC)C(=O)[C@@H]1C=C2c3cccc4[nH]cc(c34)C[C@H]2N(C)C1` [[N-methyl-3H]LSD], for which the Ki in assay [16], in [17], in [18], in [19], in [20] and in assay [21] was greater than 10 µM throughout. In addition, the Ki in assay [10], in [11], in [12], in assay [13], in [14] and in [15] was greater than 10 µM in each case.
On to `C[C@@H]1C[C@H](C)N1C(=O)C1C=C2c3cccc4[nH]cc(c34)C[C@H]2N(C)C1` (stereo partly drawn) [cis-2a], for which the Ki in assay [16], in assay [17], in assay [18], in [19], in assay [20] and in assay [21] was greater than 10 µM each time. Further, the Ki in [10], in assay [11], in assay [12], in [13], in assay [14] and in [15] was greater than 10 µM in each case.
Regarding `CNC(C)Cc1ccc2c(c1)OCO2` (stereo unspecified) [mdma], the Ki in [1], in assay [3], in assay [4], in [22], in [16] and in [17] was greater than 10 µM in each case. Besides, the Ki in assay [18] was greater than 10 µM; in assay [19] it was greater than 10 µM; in assay [9] it was 8.25 µM; in assay [10] it was greater than 10 µM; in assay [11] it was greater than 10 µM; in [12] it was greater than 10 µM. In [15], this compound displayed a Ki greater than 10 µM.
Turning to `C[C@@H]1C[C@@H](C)N1C(=O)C1C=C2c3cccc4[nH]cc(c34)C[C@H]2N(C)C1` (stereo partly specified) [rr-2b], the Ki in assay [16], in [17], in assay [18], in assay [19], in [20] and in assay [21] was greater than 10 µM each time. Besides, the Ki in [10], in [11], in assay [12], in assay [13], in assay [14] and in [15] was greater than 10 µM throughout.

These data come from BindingDB's records for PubMed 20126400 (University of Oklahoma, 2010).
